Source: article PMC11822212, “High-throughput screening identifies Aurora kinase B as a critical therapeutic target for Merkel cell carcinoma” (Nature Communications, 2025)

Experiments:
[1] = tested on: MCC13 cells (VN-MCC); assay: qHTS cell viability (CellTiter-Glo, 72 h; primary and follow-up small molecule screen); assay type: cell-based, human
[2] = tested on: MCC26 cells (VN-MCC); assay: as above; assay type: cell-based, human
[3] = tested on: UISO cells (VN-MCC); assay: as above; assay type: cell-based, human
[4] = tested on: WAGA cells (VP-MCC); assay: as above; assay type: cell-based, human
[5] = tested on: MKL-1 cells (VP-MCC); assay: as above; assay type: cell-based, human
[6] = tested on: MKL-2 cells (VP-MCC); assay: as above; assay type: cell-based, human
[7] = tested on: HACAT cells; assay: qHTS cell viability (CellTiter-Glo, 72 h; primary screen), control cell line; assay type: cell-based, human
[8] = tested on: HEK293T cells; assay: as above; assay type: cell-based, human
[9] = tested on: NIH-3T3 cells; assay: as above; assay type: cell-based, mouse
[10] = tested on: CRL-7250 cells; assay: as above; assay type: cell-based
[11] = tested on: MCC cell lines (WAGA, MKL-1, MKL-2, MCC13, MCC26, UISO); assay: qHTS cell viability, all six MCC cell lines as a group (mean AUC, MCC.avg); assay type: cell-based, human; settings: mean AUC of six MCC cell lines
[12] = tested on: VP-MCC cell lines (WAGA, MKL-1, MKL-2); assay: qHTS cell viability, VP-MCC cell lines as a group (mean AUC, VP.MCC.avg); assay type: cell-based, human; settings: for VP-MCC_Avg_AUC: mean AUC of VP-MCC cell lines
[13] = tested on: VN-MCC cell lines (MCC13, MCC26, UISO); assay: qHTS cell viability, VN-MCC cell lines as a group (mean AUC, VN.MCC.avg); assay type: cell-based, human; settings: for VN-MCC_Avg_AUC: mean AUC of VN-MCC cell lines
[14] = tested on: control cell lines (HACAT, HEK293T, CRL-7250, NIH-3T3); assay: qHTS cell viability, control cell lines as a group (mean AUC, Control.avg); assay type: cell-based; settings: mean AUC of control cell lines
[15] = tested on: six MCC cell lines and four control cell lines; assay: qHTS cell viability, all 10 cell lines screened; assay type: cell-based
[16] = MIPE library, 11-point DRC, sheet S2E
[17] = MIPE library, 11-point DRC, control cell line, sheet S2E
[18] = NPC library, qHTS dose-response AUC, MCC13
[19] = area under the dose-response curve, MCC13 cells, AUC<450 = reduced viability
[20] = NPC library, qHTS dose-response AUC, MCC26
[21] = area under the dose-response curve, MCC26 cells, AUC<450 = reduced viability
[22] = NPC library, qHTS dose-response AUC, UISO
[23] = area under the dose-response curve, UISO cells, AUC<450 = reduced viability
[24] = NPC library, qHTS dose-response AUC, WAGA
[25] = area under the dose-response curve, WAGA cells, AUC<450 = reduced viability
[26] = NPC library, qHTS dose-response AUC, MKL1
[27] = NPC library, qHTS dose-response AUC, MKL2
[28] = area under the dose-response curve, MKL-2 cells, AUC<450 = reduced viability
[29] = NPC library, qHTS dose-response AUC, HACAT control
[30] = area under the dose-response curve, HACAT control cells, AUC<450 = reduced viability
[31] = NPC library, qHTS dose-response AUC, HEK293T control
[32] = area under the dose-response curve, HEK293T control cells, AUC<450 = reduced viability
[33] = NPC library, qHTS dose-response AUC, NIH3T3 control
[34] = area under the dose-response curve, NIH3T3 control cells, AUC<450 = reduced viability
[35] = NPC library, qHTS dose-response AUC, CRL7250 control
[36] = area under the dose-response curve, CRL7250 control cells, AUC<450 = reduced viability
[37] = NPC library, therapeutic window: Control avg AUC minus VP-MCC avg AUC
[38] = NPC library, therapeutic window: Control avg AUC minus VN-MCC avg AUC
[39] = NPC library, therapeutic window: Control avg AUC minus MCC avg AUC

Compound	MCC13_AUC [1, 18]	MCC13_AUC [1, 19]	MCC26_AUC [2, 20]	MCC26_AUC [2, 21]	UISO_AUC [3, 22]	UISO_AUC [3, 23]	WAGA_AUC [4, 24]	WAGA_AUC [4, 25]	MKL1_AUC [5, 26]	MKL2_AUC [6, 27]	MKL2_AUC [6, 28]	HACAT_AUC [7, 29]	HACAT_AUC [7, 30]	HEK293T_AUC [8, 31]	HEK293T_AUC [8, 32]	NIH3T3_AUC [9, 33]	NIH3T3_AUC [9, 34]	CRL7250_AUC [10, 35]	CRL7250_AUC [10, 36]	MCC_Avg_AUC ([11]; NPC library)	other results
O=C(CCCCCCC(=O)Nc1cccnc1)NO [Pyroxamide]	–	–	–	–	–	–	–	–	–	–	–	–	–	–	–	–	–	–	–	–	MCC13_AUC [1, 16]: 454.868; MCC26_AUC [2, 16]: 466.672; UISO_AUC [3, 16]: 440.831; WAGA_AUC [4, 16]: 346.535; MKL1_AUC [5, 16]: 400.642; MKL2_AUC [6, 16]: 371.322; HACAT_AUC [7, 17]: 452.893; HEK293T_AUC [8, 17]: 439.975; NIH3T3_AUC [9, 17]: 462.753; CRL7250_AUC [10, 17]: 459.817; MCC_Avg_AUC ([11]; MIPE library, sheet S2E): 413.478; Control-VP-MCC ([12]; MIPE library, Control AUC minus VP-MCC AUC (therapeutic window), sheet S2E): 81.0267; VP-MCC_Avg_AUC ([12]; MIPE library, sheet S2E): 372.833; Control-VN-MCC ([13]; MIPE library, Control AUC minus VN-MCC AUC (therapeutic window), sheet S2E): -0.2641; VN-MCC_Avg_AUC ([13]; MIPE library, sheet S2E): 454.124; Control_Avg_AUC ([14]; MIPE library, sheet S2E): 453.86; Control-MCC ([15]; MIPE library, Control AUC minus MCC AUC (therapeutic window), sheet S2E): 40.3813
Cc1nc2ccccn2c(=O)c1CCN1CCC(C(=O)c2ccc(F)cc2)CC1 [Pirenperone]	440.287	440.287	401.594	401.594	436.893	436.893	415.843	415.843	418.427	400.974	400.974	457.02	457.02	450.239	450.239	477.551	477.551	480.924	480.924	419.003	MKL1_AUC ([5]; {}): 418.427; VP-MCC_Avg_AUC ([12]; NPC library): 411.748; Control-VP-MCC [12, 37]: 54.686; VN-MCC_Avg_AUC ([13]; NPC library): 426.258; Control-VN-MCC [13, 38]: 40.1758; Control_Avg_AUC ([14]; NPC library): 466.434; Control-MCC [15, 39]: 47.4309
Oc1ccc(O)cc1 [Hydroquinone]	503.441	503.441	512.585	512.585	450.538	450.538	370.144	370.144	415.173	400.457	400.457	491.952	491.952	480.593	480.593	488.45	488.45	487.877	487.877	442.057	MKL1_AUC ([5]; area under the dose-response curve, MKL-1 cells, AUC<450 = reduced viability): 415.173; VP-MCC_Avg_AUC ([12]; NPC library): 395.258; Control-VP-MCC [12, 37]: 91.96; VN-MCC_Avg_AUC ([13]; NPC library): 488.855; Control-VN-MCC [13, 38]: -1.637; Control_Avg_AUC ([14]; NPC library): 487.218; Control-MCC [15, 39]: 45.1616
